From article PMC1925065, “Functional characterization of two melanocortin (MC) receptors in lamprey showing orthology to the MC1 and MC4 receptor subtypes” (BMC Evolutionary Biology, 2007)
Where two headings read alike, the source gives them in different places. Bridge positions count the residues as written; N and C are the ends. Square brackets hold non-standard residues; d marks the D form. Peptide text beside a SMILES is read from it. d2Nal = N[C@H](Cc1ccc2ccccc2c1)C(=O)O; Nle = CCCC[C@H](N)C(=O)O

Tests used:
lamprey MCa receptor = target: T1, lamprey MCa receptor (Lampetra fluviatilis, UniProt A6XB56); assay: Radioligand binding assay (saturation and competition, [125I] NDP-MSH), lamprey MCa; design: species or system river lamprey; conditions: for affinity for lamprey MCa compared to the human MC1 and MC3 receptors: p < 0.01 for α-MSH, γ-MSH, ACTH(1–39)
T1 sequence (A6XB56 1-341): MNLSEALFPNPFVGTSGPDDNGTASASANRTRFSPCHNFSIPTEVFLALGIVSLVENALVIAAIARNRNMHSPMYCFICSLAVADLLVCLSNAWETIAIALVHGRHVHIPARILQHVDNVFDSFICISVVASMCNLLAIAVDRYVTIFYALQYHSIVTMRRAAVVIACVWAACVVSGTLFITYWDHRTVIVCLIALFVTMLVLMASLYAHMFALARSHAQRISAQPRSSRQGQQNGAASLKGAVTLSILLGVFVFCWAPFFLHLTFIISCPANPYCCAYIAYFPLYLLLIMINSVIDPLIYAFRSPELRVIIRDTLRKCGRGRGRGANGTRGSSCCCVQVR
Protocol: HEK-293 (human embryonic kidney) cells with Epstein-Barr nuclear antigen (EBNA) grown to 50–70% confluence were transfected with 10 μg of the construct using FuGENE-6 Transfection Reagent (Roche, Sweden) according to the manufacturers' instruction. The cells were grown in Dulbeccos Modified Eagle Media and F-12 Nutrient Mixture (D-MEM/F-12) (1:1) with GlutaMAX I containing 10% foetal bovine serum, 100 u/ml penicillin, 100 μg/ml streptomycin, 2.5 ug/ml amphotericin B, and 250 μg/ml geneticin G-418 (Invitrogen); in humidified atmosphere of 95% air and 5% CO2 at 37°C. Semi-stable cell lines, expressing target receptor, were obtained by selecting for growth in the presence of 100 μg/ml hygromycin B (Invitrogen), first added 24 hours after transfection.
HEK-293 EBNA cells expressing MC receptors were harvested from plate and resuspended in binding buffer composed of 25 mM HEPES, 2.5 mM CaCl2, 1 mM MgCl2 and 0.2% bacitracin, pH adjusted to 7.4. To obtain the membranes, cells were mechanically homogenized with Ultra Turrax. Cell suspensions were centrifuged for 3 min at 190 g and membranes were collected from the supernatant by centrifugation for 15 min at 20000 g. The pellet was resuspended in binding buffer. The binding was performed in a final volume of 100 μl for 2 h at room temperature. Saturation experiments were carried out with serial dilutions of [^125I] […] Competition experiments were performed with constant 0.6 nM concentration of [^125I] […] The membranes were collected by filtration on Glass Fibre filters, Filtermat A (Perkin Elmer, USA), using a TOMTEC Mach III cell harvester (Orange, CT, USA). The filters were washed with 5 ml per well of 50 mM Tris HCl (pH 7.4) and dried at 50°C. MeltiLex A scintillator sheets (Perkin Elmer, USA) were melted on dried filters and radioactivity was counted with an automatic Microbeta counter 1450 (Perkin Elmer). Binding assays were performed in duplicate with at least three independent experiments. […] The results were analysed with Prism 3.0 software package (GraphPad, USA). Binding affinities were compared with one-way ANOVA Tukey's post-hoc tests.

human MC5 = conditions: mean ± SEM, cited from earlier work; for Ki: competition
human MC3 = conditions: mean ± SEM, cited from earlier work; for Ki: competition
human MC1 = conditions: mean ± SEM, cited from earlier work; for Ki: competition
human MC4 = conditions: mean ± SEM, cited from earlier work; for Ki: competition
[1] = tested on: Non-transfected cells (HEK-293 EBNA); assay: Radioligand binding, non-transfected cells; design: species or system human; conditions: [125I] NDP-MSH
Protocol: HEK-293 EBNA cells expressing MC receptors were harvested from plate and resuspended in binding buffer composed of 25 mM HEPES, 2.5 mM CaCl2, 1 mM MgCl2 and 0.2% bacitracin, pH adjusted to 7.4. To obtain the membranes, cells were mechanically homogenized with Ultra Turrax. Cell suspensions were centrifuged for 3 min at 190 g and membranes were collected from the supernatant by centrifugation for 15 min at 20000 g. The pellet was resuspended in binding buffer. The binding was performed in a final volume of 100 μl for 2 h at room temperature. Saturation experiments were carried out with serial dilutions of [^125I] NDP-MSH { [Nle^4, D-Phe^7]α-MSH}, labelled by the Chloramine-T method. Non-specific binding was determined in the presence of 1 μM unlabeled NDP-MSH. Competition experiments were performed with constant 0.6 nM concentration of [^125I] NDP-MSH and serial dilutions of competing unlabelled human ligands: NDP-MSH, α-MSH, β-MSH, γ1-MSH, ACTH (1–17) ACTH (1–24) ACTH (1–39), MTII, HS024) (Neosystem, France) and lamprey ligands: MSH-A, MSH-B, ACTH(1–31). […] MeltiLex A scintillator sheets (Perkin Elmer, USA) were melted on dried filters and radioactivity was counted with an automatic Microbeta counter 1450 (Perkin Elmer). […] The results were analysed with Prism 3.0 software package (GraphPad, USA). […]

[2] = comparison with previously published human values
[3] = saturation, [125I] NDP-MSH, ref [42]

Compound: CSCC[C@H](NC(=O)[C@H](CO)NC(=O)[C@H](Cc1ccc(O)cc1)NC(=O)[C@@H](N)CO)C(=O)N[C@@H](CCC(=O)O)C(=O)N[C@@H](Cc1cnc[nH]1)C(=O)N[C@@H](Cc1ccccc1)C(=O)N[C@@H](CCCNC(=N)N)C(=O)N[C@@H](Cc1c[nH]c2ccccc12)C(=O)NCC(=O)N[C@@H](CCCCN)C(=O)N1CCC[C@H]1C(=O)N[C@H](C(=O)NCC(=O)N[C@@H](CCCCN)C(=O)N[C@@H](CCCCN)C(=O)N[C@@H](CCCNC(=N)N)C(=O)N[C@@H](CCCNC(=N)N)C(=O)N1CCC[C@H]1C(=O)N[C@H](C(=O)N[C@@H](CCCCN)C(=O)N[C@H](C(=O)N[C@@H](Cc1ccc(O)cc1)C(=O)N1CCC[C@H]1C(=O)N[C@@H](CC(N)=O)C(=O)NCC(=O)N[C@@H](C)C(=O)N[C@@H](CCC(=O)O)C(=O)N[C@@H](CC(=O)O)C(=O)N[C@@H](CCC(=O)O)C(=O)N[C@@H](CO)C(=O)N[C@@H](C)C(=O)N[C@@H](CCC(=O)O)C(=O)N[C@@H](C)C(=O)N[C@@H](Cc1ccccc1)C(=O)N1CCC[C@H]1C(=O)N[C@@H](CC(C)C)C(=O)N[C@@H](CCC(=O)O)C(=O)N[C@@H](Cc1ccccc1)C(=O)O)C(C)C)C(C)C)C(C)C [ACTH (1–39), adrenocorticotropic hormone] (H-SYSMEHFRWGKPVGKKRRPVKVYPNGAEDESAEAFPLEF-OH)
- Ki (lamprey MCa receptor): 291 ± 20 nM

Compound: CSCC[C@H](NC(=O)[C@H](CO)NC(=O)[C@H](Cc1ccc(O)cc1)NC(=O)[C@@H](N)CO)C(=O)N[C@@H](CCC(=O)O)C(=O)N[C@@H](Cc1c[nH]cn1)C(=O)N[C@@H](Cc1ccccc1)C(=O)N[C@@H](CCCNC(=N)N)C(=O)N[C@@H](Cc1c[nH]c2ccccc12)C(=O)NCC(=O)N[C@@H](CCCCN)C(=O)N1CCC[C@H]1C(=O)N[C@H](C(=O)NCC(=O)N[C@@H](CCCCN)C(=O)N[C@@H](CCCCN)C(=O)N[C@@H](CCCNC(=N)N)C(=O)N[C@@H](CCCNC(=N)N)C(=O)N1CCC[C@H]1C(=O)N[C@H](C(=O)N[C@@H](CCCCN)C(=O)N[C@H](C(=O)N[C@@H](Cc1ccc(O)cc1)C(=O)N1CCC[C@H]1C(=O)N[C@@H](CC(N)=O)C(=O)NCC(=O)N[C@@H](C)C(=O)N[C@@H](CCC(=O)O)C(=O)N[C@@H](CC(=O)O)C(=O)N[C@@H](CCC(=O)O)C(=O)N[C@@H](CO)C(=O)N[C@@H](C)C(=O)N[C@@H](CCC(=O)O)C(=O)N[C@@H](C)C(=O)N[C@@H](Cc1ccccc1)C(=O)N1CCC[C@H]1C(=O)N[C@@H](CC(C)C)C(=O)N[C@@H](CCC(=O)O)C(=O)N[C@@H](Cc1ccccc1)C(=O)O)C(C)C)C(C)C)C(C)C [ACTH (1–39), adrenocorticotropic hormone] (H-SYSMEHFRWGKPVGKKRRPVKVYPNGAEDESAEAFPLEF-OH; N-terminus and C-terminus assumed)
- Ki (human MC5; ref [40]): 4.92 ± 0.61 µM
- Ki (human MC3; ref [40]): 135 ± 22 nM
- Ki (human MC1; ref [40]): 3.95 ± 0.67 nM
- Ki (human MC4; ref [40]): 2170 ± 120 nM
- affinity for lamprey MCa compared to the human MC4 and MC5 receptors (lamprey MCa receptor; [2]): clearly higher affinities
- affinity for lamprey MCa compared to the human MC1 and MC3 receptors (lamprey MCa receptor; [2]): clearly lower affinities

Compound: CSCC[C@H](NC(=O)[C@H](CO)NC(=O)[C@H](Cc1ccc(O)cc1)NC(=O)[C@@H](N)CO)C(=O)N[C@@H](CCC(=O)O)C(=O)N[C@@H](Cc1c[nH]cn1)C(=O)N[C@@H](Cc1ccccc1)C(=O)N[C@@H](CCCNC(=N)N)C(=O)N[C@@H](Cc1c[nH]c2ccccc12)C(=O)NCC(=O)N[C@@H](CCCCN)C(=O)N1CCC[C@H]1C(=O)N[C@H](C(=O)NCC(=O)N[C@@H](CCCCN)C(=O)N[C@@H](CCCCN)C(=O)N[C@@H](CCCNC(=N)N)C(=O)O)C(C)C [ACTH (1–17)]
- Ki (human MC5; ref [40]): 4.24 ± 1.2 µM
- Ki (human MC3; ref [40]): 14 ± 4.5 nM
- Ki (human MC1; ref [40]): 0.23 ± 0.061 nM
- Ki (human MC4; ref [40]): 419 ± 62 nM
- Ki (lamprey MCa receptor): 51.1 ± 3.2 nM
- affinity for lamprey MCa compared to the human MC4 and MC5 receptors (lamprey MCa receptor; [2]): clearly higher affinities
- affinity for lamprey MCa compared to the human MC1 and MC3 receptors (lamprey MCa receptor; [2]): clearly lower affinities

Compound: CCCC[C@@H]1NC(=O)[C@@H](NC(C)=O)CSSC[C@@H](C(N)=O)NC(=O)CNC(=O)[C@H](Cc2c[nH]c3ccccc23)NC(=O)[C@H](CCCNC(=N)N)NC(=O)[C@@H](Cc2ccc3ccccc3c2)NC(=O)[C@H](Cc2c[nH]cn2)NC(=O)[C@H](CCCNC(=N)N)NC1=O [HS024] (Ac-C[Nle]RH[d2Nal]RWGC-NH2; disulfide 1-9 (inferred); N-terminus and C-terminus assumed)
- Ki (human MC5; ref [41]): 0.00329 ± 0.00115 µM
- Ki (human MC3; ref [42]): 15.1 ± 3 nM
- Ki (human MC1; ref [41]): 18.6 ± 3.3 nM
- Ki (human MC4; ref [42]): 0.341 ± 0.089 nM
- Ki (lamprey MCa receptor): 72.5 ± 1.4 nM
- affinity for lamprey MCa compared to the human MC1, MC3, MC4 and MC5 receptors (lamprey MCa receptor; [2]): clearly lower affinities

Compound: CSCC[C@H](NC(=O)[C@@H](NC(=O)[C@@H](N)Cc1ccc(O)cc1)C(C)C)C(=O)NCC(=O)N[C@@H](Cc1c[nH]cn1)C(=O)N[C@@H](Cc1ccccc1)C(=O)N[C@@H](CCCNC(=N)N)C(=O)N[C@@H](Cc1c[nH]c2ccccc12)C(=O)N[C@@H](CC(=O)O)C(=O)N[C@@H](CCCNC(=N)N)C(=O)N[C@@H](Cc1ccccc1)C(N)=O [γ1-MSH]
- Ki (human MC5; ref [39]): 42.6 ± 6.6 µM
- Ki (human MC3; ref [42]): 7.45 ± 2.55 nM
- Ki (human MC1; ref [39]): 2.68 ± 0.35 nM
- Ki (human MC4; ref [42]): 51800 ± 12000 nM
- Ki (lamprey MCa receptor): 684 ± 7 nM
- affinity for lamprey MCa compared to the human MC4 and MC5 receptors (lamprey MCa receptor; [2]): clearly higher affinities
- affinity for lamprey MCa compared to the human MC1 and MC3 receptors (lamprey MCa receptor; [2]): clearly lower affinities

Compound: β-melanocyte stimulating hormone [β-MSH]
- Ki (human MC5; ref [39]): 14.4 ± 1.67 µM
- Ki (human MC3; ref [42]): 15.1 ± 3.4 nM
- Ki (human MC1; ref [38]): 2.53 ± 0.93 nM
- Ki (human MC4; ref [42]): 387 ± 208 nM
- affinity for lamprey MCa compared to the human MC4 and MC5 receptors (lamprey MCa receptor; [2]): clearly higher affinities
- affinity for lamprey MCa compared to the human MC1 and MC3 receptors (lamprey MCa receptor; [2]): clearly lower affinities

Compound: CCCC[C@H](NC(=O)[C@H](CO)NC(=O)[C@H](Cc1ccc(O)c(I)c1)NC(=O)[C@H](CO)NC(C)=O)C(=O)N[C@@H](CCC(=O)O)C(=O)N[C@@H](Cc1c[nH]cn1)C(=O)N[C@H](Cc1ccccc1)C(=O)N[C@@H](CCCNC(=N)N)C(=O)N[C@@H](Cc1c[nH]c2ccccc12)C(=O)NCC(=O)N[C@@H](CCCCN)C(=O)N1CCC[C@H]1C(=O)N[C@H](C(N)=O)C(C)C [[^125I] NDP-MSH, [Nle^4, D-Phe^7]α-MSH]
- Kd (human MC5; saturation, [125I] NDP-MSH, ref [39]): 5.05 ± 1 nM
- Kd (human MC3; [3]): 0.412 ± 0.121 nM
- Kd (human MC1; saturation, [125I] NDP-MSH, ref [38]): 0.109 ± 0.062 nM
- Kd (human MC4; [3]): 1.78 ± 0.36 nM
- Kd (lamprey MCa receptor; read-out: Kd (mean ± SEM) from saturation curves, lamprey MCa, HEK-293 EBNA membranes, pH 7.4, 2 h, room temperature, non-specific binding with unlabelled NDP-MSH, mean ± SEM, duplicate, at least three independent experiments): 2.46 ± 0.68 nM
- specific binding, non-transfected cells [1]: did not show any specific binding
